Experimental data reported in ChEMBL document CHEMBL1130819, “Synthesis and biological evaluation of 1,2-disubstituted carbonucleosides of 2-amino-6-substituted purine and 8-azapurine” (Bioorg Med Chem Lett, 1998).
≈ marks a conversion by molar mass, not a printed value.

Experiments:
CCRF-CEM = assay: Antitumor activity was evaluated against CEM cell line; type: functional, cell-based; conditions: Homo sapiens
L1210 = assay: Antitumor activity was evaluated against L1210 cell line; type: functional, cell-based; conditions: Mus musculus
MOLT-4 = assay: Antitumor activity was evaluated against Molt4/C8 cell line; type: functional, cell-based; conditions: Homo sapiens
Human alphaherpesvirus 3 [1] = assay: Antiviral activity against Varicella-Zoster virus(YS/R strain); type: functional, organism-based
Human alphaherpesvirus 3 [2] = assay: Antiviral activity against Varicella-Zoster virus (07/1strain); type: functional, organism-based
Human alphaherpesvirus 3 [3] = assay: Antiviral activity against Varicella-Zoster virus(OKA strain); type: functional, organism-based

SMILES	IC50 (CCRF-CEM) [µM]	IC50 (L1210) [µM]	IC50 (MOLT-4) [µM]	EC50 (Human alphaherpesvirus 3 [1]) [µg/mL]	EC50 (Human alphaherpesvirus 3 [2]) [µg/mL]	EC50 (Human alphaherpesvirus 3 [3]) [µg/mL]
Nc1nc(Cl)c2ncn([C@H]3CCC[C@H]3CO)c2n1	83	71.4	49.1	–	–	–
Nc1nc(N)c2ncn([C@H]3CCC[C@H]3CO)c2n1	90	113	147	37 (≈ 149 µM)	–	–
Nc1nc(O)c2nnn([C@H]3CCC[C@H]3CO)c2n1	86.7	80	86	–	–	–
Nc1nc(N)c2nnn([C@H]3CCC[C@H]3CO)c2n1	90.5	77.2	120	50 (≈ 201 µM)	45 (≈ 181 µM)	32 (≈ 128 µM)
Nc1nc(Cl)c2nnn([C@H]3CCC[C@H]3CO)c2n1	53	71	75.3	–	–	–
Nc1nc(O)c2ncn([C@H]3CCC[C@H]3CO)c2n1	> 200	> 200	> 200	–	–	–
